Source: patent US3998963A, “Tertiary butyl substituted carbamoyl oxime pesticides” (priority 1975, dated 1976)
Converted amounts (≈) assume the structure as drawn. Like-named read-outs stand apart in the source and are kept apart here.

Legend:
Type in all cases: in vivo
[1] = system: southern armyworm (Spodoptera eridania, (Cram.)); test: Southern Armyworm Leaf Spray Bait Test; conditions: for LC50: Spodoptera eridania, 72 h, leaf spray bait, 3 days, read-out: Insect LD50, Armyworm; for (b) relative efficacy of derivative vs parent compound, Armyworm: bait, formula of footnote b is drawing 8
Method: (§1) Suspensions of the test compouns were prepared by dissolving one gram of compound in 50 milliliters of acetone in which had been dissolved 0.1 gram (10 percent of the weight of compound) of an alkylphenoxy polyethoxyethanol surfactant, as an emulsifying or dispersing agent. The resulting solution was mixed into 150 milliliters of water to give roughly 200 milliliters of a suspension containing the compound in finely divided form. The thus-prepared stock suspension contained 0.5 percent by weight of compound. The test concentrations in parts per million by weight employed in the tests described hereinbelow were obtained by appropriate dilutions of the stock suspension with water. The test procedures were as follows:
Southern Armyworm Leaf Spray Bait Test
Larvae of the southern armyworm (Spodoptera eridania, (Cram.)), reared on Tendergreen bean plants at a temperature of 80°±5° F. and a relative humidity of 50±5 per cent, constituted the test insects.
The test compounds were formulated by diluting the stock suspension with water to give a suspension containing 500 parts of test compound per million parts of final formulation. Potted Tendergreen bean plants of standard height and age were placed on a revolving turntable and sprayed with 100-110 milliliters of test compound formulation by use of a DeVilbiss spray gun set at 10 psig air pressure. This application, which lasted 25 seconds, was sufficient to wet plants to run-off. As a control, 100-110 milliliters of a water-acetone-emulsifier solution containing no test compound were also sprayed on infested plants. When dry, the paired leaves were separated and each one was placed in a 9 centimeter Petri dish lined with moistened filter paper. Five randomly selected larvae were introduced into each dish and the dishes were closed. The closed dishes were labeled and held at 80°-85° F. for 3 days. Although the larvae could easily consume the whole leaf within 24 hours, no more food was added. Larvae which were unable to move the length of the body, even upon stimulation by prodding, were considered dead. Per cent mortality was recorded for various concentration levels.
(§2) In Table 1 are presented insect and rat toxicity data (bait tests) on a comparative basis of the compounds described above. […] Rat toxicity is also more meaningfully compared on the basis of molar weight LD50 values. The relative efficacy of the parent compounds as compared to the previously known derivatives and as compared to the new compounds of this invention is also shown in Table 1. The ratio of efficacy as contact poisons (immersion/bait) of the compounds tested against Armyworm and House Fly is presented in Table 2 along with the results of the phytotoxicity tests of the compounds on bean, corn, tomato and cotton.

[2] = Mammalian Toxicity (peroral, rat); conditions: rat, in vivo, po, peroral
Method: (§3) These compositions were also evaluated to determine their peroral toxicity to mammals by conventional methods. The animal selected for this experiment was the rat. The test results obtained are expressed in terms of the number of milligrams of composition per kilogram of weight of the animal required to achieve a mortality rate of 50 percent (LD50).
as §2

[3] = system: house flies (Musca domestica, L.); test: Fly Bait Test; conditions: for LC50: Musca domestica, 24 hours, read-out: Insect LD50, Housefly; for (b) relative efficacy of derivative vs parent compound, Housefly: formula of footnote b is drawing 8
Method: as §1
Four to six day old adult house flies (Musca domestica, L.), reared according to the specifications of the Chemical Specialities Manufacturing Association (Blue Book, McNair-Dorland Co., N.Y. 1954; pages 243-244, 261) under controlled conditions of 80°±5° F. and 50±5 per cent relative humidity, were the test insects. The flies were immobilized by anesthetizing with carbon dioxide and twenty five immobilized individuals, males and females, were transferred to a cage consisting of a standard food strainer about five inches in diameter which was inverted over a wrapping-paper covered surface. The test compounds were formulated by diluting the stock suspension with a 10 per cent (by weight) sugar solution to give a suspension containing 500 parts of test compound per million parts of final formulation, by weight. Ten milliliters of the test formulation were added to a souffle cup containing a 1-inch square of an absorbent cotton pad. This bait cup was introduced and centered on the blotting paper under the food strainer prior to admitting the anesthetized flies. The caged flies were allowed to feed on the bait for 24 hours, at a temperature of 80°±5° F. and the relative humidity of 50±5 per cent.
as §2

[4] = system: two-spotted mite (Tetranychus urticae Koch); test: Mite Foliage Spray Test; conditions: foliar, 144 h, 6 days, read-out: Insect LD50, Mite
Method: as §1
Adults and nymphal stage of the two-spotted mite (Tetranychus urticae Koch), reared on Tendergreen bean plants at 80±5 per cent relative humidity, were the test organisms. Infested leaves from a stock culture were placed on the primary leaves of two bean plants 6 to 8 inches in height, growing in a 21/2 inch clay pot. 150-200 Mites, a sufficient number for testing, transferred from the excised leaves to the fresh plants in a period of twenty four hours. Following the twenty four hour transfer period, the excised leaves were removed from the infested plants. The test compounds were formulated by diluting the stock suspension with water to give a suspension containing 500 parts of test compound per million parts of final formulation. The potted plants (one pot per compound) were placed on a revolving turntable and sprayed with 100-110 milliliters of test compound formulation by use of a DeVilbiss spray gun set at 40 psig. air pressure. This application, which lasted 25 seconds, was sufficient to wet the plants to run-off. As a control, 100-110 milliliters of a water solution containing acetone and emulsifier in the same concentrations as the test compound formulation, but containing no test compound, were also sprayed on infested plants. The sprayed plants were held at 80±5 per cent relative humidity for 6 days, after which a mortality count of motile forms was made. Microscopic examination for motile forms was made on the leaves of the test plants. Any individual which was capable of locomotion upon prodding was considered living.

[5] = system: southern armyworm (Spodoptera eridania, (Cram.)); test: Armyworm Immersion Test; conditions: for LC50: Spodoptera eridania, 72 h, immersion (contact), 3 days, read-out: Imm LD50, Armyworm; for contact vs stomach poison, army worm (in words): immersion vs bait; for (Imm/Bait), Armyworm: ratio immersion/bait LD50
Method: as §1
The test organism used was the fourth instar larvae of the southern armyworm (Spodoptera eridania, (Cram.)) reared on Tendergreen beans in a room where temperature was held at 80° ± 5° F. and relaitve humidity 50 ± 5 percent.
Ten randomly selected larvae were thoroughly wetted in a formulated mixture of the chemical (50 ml) by pouring the insects and formulation from one beaker to another six times. Excess liquid was removed by transferring the larvae to paper towels. An equivalent amount of a water solution containing acetone and emulsifier in the same concentrations as the insecticidal mixture but without the candidate insecticide was applied in the same manner as a controls for the experiment. When dry, 5 larvae were placed in each of two 9-cm Petri dishes lined with filter paper and containing one fully expanded Tendergreen bean leaf per dish as food.
The closed dishes were held at 80°-85° F. for 3 days. Although the larvae can easily consume the whole leaf within 24 hours, no more food was added. Check larvae remained vigorous during the entire holding period. At the end of the holding period larvae which were unable to move the length of the body, even upon stimulation, were considered dead.
as §2

rat = test: Mammalian Toxicity (peroral, rat); conditions: for (b) relative value of derivative vs parent compound, Rat LD50: peroral, formula of footnote b is drawing 8; for mammalian toxicity (in words): text statement
Method: as §3, §2

[6] = Table II, read-out: Rat Tox. LD50
[7] = molar weight LD50, Table I, read-out: Rat LD50/mole wt. [a]

SMILES	LC50 [1] [µg/mL]	LD50 ([2]; Table I, read-out: Rat LD50) [mg/kg]	LD50 [2, 6] [mg/kg]	LD50 [2, 7] [µmol/kg]	LC50 [3] [µg/mL]	LC50 [4] [µg/mL]	LC50 [5] [µg/mL]	contact vs stomach poison, army worm (in words) [5]	(Imm/Bait), Armyworm [5]	LD50 ([2]; read-out: rat LD50 (molar)) [µmol/kg]	(b) relative efficacy of derivative vs parent compound, Armyworm [1]	more toxic to mammals than the parent compound (rat; molar LD50 comparison, vs compound 1)	(b) relative value of derivative vs parent compound, Rat LD50 (rat)	(b) relative efficacy of derivative vs parent compound, Housefly [3]	mammalian toxicity (in words) (rat)	safety relative to the parent (molar) (rat; vs parent compound, molar basis)	less toxic to mammals than its parent compound, weight basis (rat; vs parent compound, weight basis)	mammalian toxicity (in words) (rat; listed as O-[ N-methyl-N-[4-(t-butylphenyl) sulfenyl] carbamoyl] S-isopropyl thiolacetohyd)
CNC(=O)ON=C(C)SC(C)C [Compound 2]	17 (≈ 89.3 µM)	7.7	7.7	40	11 (≈ 57.8 µM)	450 (≈ 2370 µM)	53 (≈ 279 µM)	significantly more toxic as stomach poisons than as contact poisons	3.1	–	–	–	–	–	–	–	–	–
CNC(=O)ON=C(C)SC [Compound 1, O-(methylcarbamoyl) S-methyl acetothiolhydroximate]	11 (≈ 67.8 µM)	48.5	48.5	–	4 (≈ 24.7 µM)	500 (≈ 3080 µM)	8 (≈ 49.3 µM)	significantly more toxic as stomach poisons than as contact poisons	2	330	–	–	–	–	–	–	–	–
CSC(C)=NOC(=O)N(C)Sc1ccc(C)cc1 [Compound 6]	6 (≈ 21.1 µM)	56.6	56.6	–	2 (≈ 7.03 µM)	95 (≈ 334 µM)	10 (≈ 35.2 µM)	–	1.7	200	3.2	at least 50%	1.5	–	–	–	–	–
CC(=NOC(=O)N(C)Sc1ccc(C)cc1)SC(C)C [Compound 7]	12 (≈ 38.4 µM)	18.7	16.2	60	50 (≈ 160 µM)	42 (≈ 134 µM)	14.4 (≈ 46.1 µM)	–	1.2	–	2.3	–	0.67	0.38	–	–	–	–
CCSC(C)=NOC(=O)NC [Compound 3]	11 (≈ 62.4 µM)	–	17.7	–	3 (≈ 17 µM)	250 (≈ 1420 µM)	–	–	–	–	–	–	–	–	–	–	–	–
CSC(C)=NOC(=O)N(C)Sc1ccc(C(C)(C)C)cc1 [Compound 8, O-[N-Methyl-N-[4-(t-butylphenyl)sulfenyl]carbamoyl] S-Methyl Acetothiolhydroximate]	4 (≈ 12.3 µM)	196	196	–	17 (≈ 52.1 µM)	380 (≈ 1160 µM)	4 (≈ 12.3 µM)	outstanding contact poison	1	600	5.7	–	0.5	0.4	extremely low mammalian toxicity	about twice as safe as the parent	at least 4 times	–
CSC(C)=NOC(=O)N(C)Sc1ccc(Cl)cc1 [Compound 4]	10 (≈ 32.8 µM)	65	65	210	8 (≈ 26.2 µM)	500 (≈ 1640 µM)	47 (≈ 154 µM)	–	0.47	–	2.1	–	1.43	–	–	–	–	–
CC(=NOC(=O)N(C)Sc1ccc(Cl)cc1)SC(C)C [Compound 5]	30 (≈ 90.1 µM)	16.2	16.2	48	50 (≈ 150 µM)	58 (≈ 174 µM)	4.5 (≈ 13.5 µM)	–	0.15	–	1.0	–	0.83	0.4	–	–	–	–
CC(=NOC(=O)N(C)Sc1ccc(C(C)(C)C)cc1)SC(C)C [Compound 9, O-[N-Methyl-N-[4-(t-Butylphenyl)sulfenyl]carbamoyl] S-Isopropyl Thiolacetohydroximate]	19 (≈ 53.6 µM)	71.3	71.3	200	50 (≈ 141 µM)	42 (≈ 118 µM)	5 (≈ 14.1 µM)	–	0.25	–	1.6	–	0.2	0.43	substantial reduction in mammalian toxicity	–	–	very low level of mammalian toxicity
